Results on 16 molecules are retold here after US20250197372A1 (priority 2020, published 2025).

Assay type in all cases: biochemical
The target in assay [1] is T1, recombinant alpha-glucosidase II (murine full-length glucosidase II, alpha and beta subunits, Glu 2) (Mus musculus, UniProt Q8BHN3).
T1 construct: made in house; host or cells: HEK-293T cells transduced with BacMam viruses (75% alpha, 25% beta); protein harvested from culture supernatant
In words: Alpha-glucosidase II assay (4-methylumbelliferyl-alpha-D-pyranoside substrate, fluorescence).

The target in assay [2] is recombinant human GAA (acid alpha-glucosidase) (Homo sapiens, UniProt P10253). In words: Acid alpha-glucosidase (GAA) assay (4-methylumbelliferyl-alpha-D-pyranoside substrate, fluorescence). In short, it runs like this:
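IC50 from 4-PL curve fit of percent inhibition, based on fluorescence (365/440 nm) of released methylumbelliferone relative to uninhibited enzyme. Compound dilutions and human GAA incubated 60 min, 37 °C, before 20 min substrate reaction at 37 °C, quenched at pH 10.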

Assay [3] has as its target rat sucrase (partially purified alpha-glucosidase from intestinal rat powder) (Rattus norvegicus, UniProt P23739). In words: Intestinal alpha-glucosidase assay, sucrose substrate (Glucose GO Kit). In short, it runs like this: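 Partially purified alpha-glucosidase from rat intestinal powder was preincubated 60 min at 37 °C with serial compound dilutions, then given maltose or sucrose and incubated 30 min at 37 °C.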

For assay [4], the target named is T2, recombinant human GBA (beta-glucocerebrosidase) (Homo sapiens, UniProt P04062).
T2 sequence (P04062 40-536): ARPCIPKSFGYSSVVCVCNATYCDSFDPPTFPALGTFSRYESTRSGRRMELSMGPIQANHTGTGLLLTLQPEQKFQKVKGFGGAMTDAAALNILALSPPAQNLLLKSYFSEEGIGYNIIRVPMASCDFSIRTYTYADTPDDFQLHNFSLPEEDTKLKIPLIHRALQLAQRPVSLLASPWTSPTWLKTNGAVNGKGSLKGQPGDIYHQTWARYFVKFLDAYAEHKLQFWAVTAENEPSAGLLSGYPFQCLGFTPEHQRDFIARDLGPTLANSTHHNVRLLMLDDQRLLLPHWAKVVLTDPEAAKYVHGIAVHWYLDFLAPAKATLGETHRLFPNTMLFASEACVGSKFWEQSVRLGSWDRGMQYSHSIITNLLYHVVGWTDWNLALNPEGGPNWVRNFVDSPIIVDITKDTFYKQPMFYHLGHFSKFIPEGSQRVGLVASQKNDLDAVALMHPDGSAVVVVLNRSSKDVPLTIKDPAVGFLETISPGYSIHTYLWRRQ
Put plainly: Beta-glucocerebrosidase (GBA, glucosylceramidase) assay (4-methylumbelliferyl-beta-D-pyranoside substrate, fluorescence). As for the experimental part:
Beta-glucocerebrosidase (GBA, also referred to glucosylceramidase): To analyze inhibitory effects of a test compound, commercially available recombinant human GBA was incubated with multiple dilutions of test compound for 60 minutes at 37° C. 4-methylumbelliferyl-beta-D-pyranoside was then introduced to the mixture as substrate. Following incubation for 60 minutes at 37° C., 1,4-methyllumbelliferone was generated, and the reaction was stopped with the stop solution (0.5 M glycine; 0.3 M NaOH, pH 10). 1,4-methyllumbelliferone was detected by fluorescence (excitation at 365 nm, emission at 440 nm). Relative fluorescence compared to untreated enzymatic activity and test compound concentration is then plotted as a function of percent inhibition. The IC50 was determined using a 4-PL curve fit as the measure of relative inhibitory activity of each test compound (see Table 3).

Assay [5] deals with rat maltase (partially purified alpha-glucosidase from intestinal rat powder). In words: Intestinal alpha-glucosidase assay, maltose substrate (Glucose GO Kit). In short, it runs like this: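 First step: 60 min, 37 °C, compound with partially purified rat intestinal alpha-glucosidase. Next, maltose or sucrose for 30 min at 37 °C, ended at 90 °C for 5 min. Glucose quantified enzymatically; concentration–inhibition data fitted 4-PL for IC50.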

[6] abbreviates: Glucosidase 2, read-out: Glu2 IC50.

Like-named read-outs stand apart in the source and are kept apart here. Some results are limits rather than exact numbers.

T1 sequence (O08795 15-521): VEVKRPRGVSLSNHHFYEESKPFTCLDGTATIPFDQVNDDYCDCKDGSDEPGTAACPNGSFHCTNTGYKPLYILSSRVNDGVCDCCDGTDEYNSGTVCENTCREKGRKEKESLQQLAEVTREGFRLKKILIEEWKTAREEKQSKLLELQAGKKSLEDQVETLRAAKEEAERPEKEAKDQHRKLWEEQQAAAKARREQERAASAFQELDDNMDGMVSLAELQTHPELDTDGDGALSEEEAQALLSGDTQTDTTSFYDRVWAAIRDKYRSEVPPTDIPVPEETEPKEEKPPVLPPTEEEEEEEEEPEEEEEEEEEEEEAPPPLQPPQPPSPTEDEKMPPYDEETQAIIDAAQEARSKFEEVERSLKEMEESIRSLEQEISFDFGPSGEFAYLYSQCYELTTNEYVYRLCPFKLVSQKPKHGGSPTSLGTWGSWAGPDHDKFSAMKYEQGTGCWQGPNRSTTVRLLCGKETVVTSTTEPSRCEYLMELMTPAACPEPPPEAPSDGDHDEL
T1 sequence (Q8BHN3 33-944): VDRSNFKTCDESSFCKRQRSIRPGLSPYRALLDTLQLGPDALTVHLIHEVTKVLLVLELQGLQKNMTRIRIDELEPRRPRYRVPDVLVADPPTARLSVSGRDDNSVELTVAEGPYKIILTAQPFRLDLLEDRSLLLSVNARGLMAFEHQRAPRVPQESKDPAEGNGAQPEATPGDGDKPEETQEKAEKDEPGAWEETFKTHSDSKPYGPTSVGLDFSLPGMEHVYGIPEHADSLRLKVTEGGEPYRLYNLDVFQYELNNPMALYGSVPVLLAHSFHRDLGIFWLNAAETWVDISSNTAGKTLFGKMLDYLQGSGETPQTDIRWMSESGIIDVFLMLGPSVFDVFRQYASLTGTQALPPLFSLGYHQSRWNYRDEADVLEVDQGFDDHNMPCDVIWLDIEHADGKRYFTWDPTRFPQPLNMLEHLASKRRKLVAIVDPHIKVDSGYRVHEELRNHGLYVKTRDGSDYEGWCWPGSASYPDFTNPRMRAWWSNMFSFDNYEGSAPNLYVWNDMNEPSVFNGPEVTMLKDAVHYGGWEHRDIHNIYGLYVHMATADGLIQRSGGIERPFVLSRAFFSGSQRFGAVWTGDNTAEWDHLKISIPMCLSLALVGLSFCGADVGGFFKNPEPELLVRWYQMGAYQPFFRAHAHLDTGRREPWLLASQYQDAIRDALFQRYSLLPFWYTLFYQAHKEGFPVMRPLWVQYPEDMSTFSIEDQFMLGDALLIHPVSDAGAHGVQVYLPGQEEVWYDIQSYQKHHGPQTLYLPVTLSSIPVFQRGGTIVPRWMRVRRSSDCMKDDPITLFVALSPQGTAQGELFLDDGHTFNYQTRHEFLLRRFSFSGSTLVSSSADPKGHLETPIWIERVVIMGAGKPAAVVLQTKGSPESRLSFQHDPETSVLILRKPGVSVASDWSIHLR
Sequence of rat sucrase (partially purified alpha-glucosidase from intestinal rat powder) (P23739 whole entry): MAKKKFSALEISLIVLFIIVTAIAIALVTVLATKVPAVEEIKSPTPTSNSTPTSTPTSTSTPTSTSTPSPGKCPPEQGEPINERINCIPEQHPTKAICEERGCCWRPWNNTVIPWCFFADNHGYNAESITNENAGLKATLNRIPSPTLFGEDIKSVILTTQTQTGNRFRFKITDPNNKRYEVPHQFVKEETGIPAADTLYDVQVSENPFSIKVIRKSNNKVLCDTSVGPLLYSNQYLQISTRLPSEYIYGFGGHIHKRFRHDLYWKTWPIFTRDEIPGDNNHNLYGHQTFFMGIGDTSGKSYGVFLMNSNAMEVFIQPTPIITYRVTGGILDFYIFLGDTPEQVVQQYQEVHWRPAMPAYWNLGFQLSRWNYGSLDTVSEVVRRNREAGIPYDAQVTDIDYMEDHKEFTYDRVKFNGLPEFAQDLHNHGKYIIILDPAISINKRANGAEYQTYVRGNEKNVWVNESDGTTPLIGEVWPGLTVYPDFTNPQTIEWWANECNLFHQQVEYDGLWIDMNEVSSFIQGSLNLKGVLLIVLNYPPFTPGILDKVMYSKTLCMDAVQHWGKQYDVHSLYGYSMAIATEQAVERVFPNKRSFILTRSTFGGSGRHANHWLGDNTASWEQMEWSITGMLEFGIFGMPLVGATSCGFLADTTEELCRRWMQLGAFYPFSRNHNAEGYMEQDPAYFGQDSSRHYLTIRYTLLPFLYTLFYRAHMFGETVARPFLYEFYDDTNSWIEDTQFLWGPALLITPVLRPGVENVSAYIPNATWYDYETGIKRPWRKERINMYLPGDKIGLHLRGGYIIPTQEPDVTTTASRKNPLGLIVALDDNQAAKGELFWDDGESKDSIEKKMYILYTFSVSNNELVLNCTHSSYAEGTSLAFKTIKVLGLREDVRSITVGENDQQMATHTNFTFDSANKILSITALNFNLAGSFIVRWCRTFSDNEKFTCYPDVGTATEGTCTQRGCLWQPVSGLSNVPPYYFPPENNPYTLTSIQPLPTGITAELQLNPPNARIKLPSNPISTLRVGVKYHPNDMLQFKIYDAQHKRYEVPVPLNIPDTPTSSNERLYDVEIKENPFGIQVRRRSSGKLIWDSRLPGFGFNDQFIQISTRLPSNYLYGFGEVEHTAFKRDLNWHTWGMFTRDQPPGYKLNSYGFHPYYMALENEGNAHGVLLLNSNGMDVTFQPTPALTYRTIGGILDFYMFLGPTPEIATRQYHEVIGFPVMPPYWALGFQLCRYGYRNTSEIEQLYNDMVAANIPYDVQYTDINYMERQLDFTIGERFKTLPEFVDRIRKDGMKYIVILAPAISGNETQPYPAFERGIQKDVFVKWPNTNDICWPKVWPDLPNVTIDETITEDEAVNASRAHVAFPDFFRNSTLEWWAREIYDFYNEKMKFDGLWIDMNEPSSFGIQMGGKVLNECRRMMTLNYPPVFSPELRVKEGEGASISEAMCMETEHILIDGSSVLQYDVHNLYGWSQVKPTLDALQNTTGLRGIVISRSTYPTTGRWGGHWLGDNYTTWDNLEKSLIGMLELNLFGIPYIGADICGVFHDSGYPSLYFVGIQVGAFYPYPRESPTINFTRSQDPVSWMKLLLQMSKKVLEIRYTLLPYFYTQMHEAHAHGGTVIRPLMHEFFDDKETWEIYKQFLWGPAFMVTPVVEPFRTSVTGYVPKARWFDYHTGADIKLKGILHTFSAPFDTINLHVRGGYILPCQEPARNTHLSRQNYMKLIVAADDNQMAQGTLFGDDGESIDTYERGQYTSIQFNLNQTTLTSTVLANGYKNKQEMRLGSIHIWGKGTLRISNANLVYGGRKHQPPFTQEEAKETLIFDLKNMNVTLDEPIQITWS

As usually defined, the IC50 is the concentration that inhibits the measured activity by half. In the case of `CN(C)C(=O)c1cc(NCCCCCCN2C[C@H](O)[C@@H](O)[C@H](O)[C@H]2CO)cc(-c2ncccn2)c1` [Compound 1126, N,N-dimethyl-3-(pyrimidin-2-yl)-5-({6-[(2R,3R,4R,5S)-3,4,5-trihydroxy-2-(hydroxymethyl)piperidin-1-yl]hexyl}amino)benzamide], the IC50 is 0.035 µM in assay [1] (setting [6]); 0.086 µM in assay [2]; 13.5 µM in assay [3]; 7.04 µM in assay [4]; 0.023 µM in assay [5].

For the molecule `CS(=O)(=O)c1cc(NCCCCCCN2C[C@H](O)[C@@H](O)[C@H](O)[C@H]2CO)cc(-c2ncccn2)c1` [Compound 1128, (2R,3R,4R,5S)-2-(hydroxymethyl)-1-(6-{[3-methanesulfonyl-5-(pyrimidin-2-yl)phenyl]amino}hexyl)piperidine-3,4,5-triol], the IC50 is 0.001 µM in assay [1] (setting [6]); 0.005 µM in assay [2]; 0.039 µM in assay [3]; 5.2 µM in assay [4]; less than 0.001 µM in assay [5].

As to `O=Cc1cc(NCCCCCCN2C[C@H](O)[C@@H](O)[C@H](O)[C@H]2CO)cc(-c2ncccn2)c1` [Compound 1129, 3-(pyrimidin-2-yl)-5-({6-[(2R,3R,4R,5S)-3,4,5-trihydroxy-2-(hydroxymethyl)piperidin-1-yl]hexyl}amino)benzaldehyde], the IC50 turned out to be 0.007 µM in assay [1] (setting [6]); 0.028 µM in assay [2]; 0.056 µM in assay [3]; 2.73 µM in assay [4]; 0.005 µM in assay [5].

`N#Cc1cc(NCCCCCCN2C[C@H](O)[C@@H](O)[C@H](O)[C@H]2CO)cc(-c2ncccn2)c1` [Compound 1130, 3-(pyrimidin-2-yl)-5-({6-[(2R,3R,4R,5S)-3,4,5-trihydroxy-2-(hydroxymethyl)piperidin-1-yl]hexyl}amino)benzonitrile]: the IC50 came out at 0.006 µM in assay [1] (setting [6]); 0.012 µM in assay [2]; 0.03 µM in assay [3]; 0.974 µM in assay [4]; 0.004 µM in assay [5].

Regarding `OC[C@@H]1[C@@H](O)[C@H](O)[C@@H](O)CN1CCCCCCNc1cc(-c2ncccn2)cc(C(F)(F)F)c1` [Compound 1131, (2R,3R,4R,5S)-2-(hydroxymethyl)-1-(6-{[3-(pyrimidin-2-yl)-5-(trifluoromethyl)phenyl]amino}hexyl)piperidine-3,4,5-triol], the IC50 in assay [1] (setting [6]) came out at 0.003 µM; in assay [2] it was 0.025 µM; in assay [3] it was 0.04 µM; in assay [4], 0.308 µM; in assay [5], 0.008 µM.

In the case of `COc1cc(C#N)cc(NCCc2ccc(CCN3C[C@H](O)[C@@H](O)[C@H](O)[C@H]3CO)cc2)c1` [Compound 1133, 3-methoxy-5-{[2-(4-{2-[(2R,3R,4R,5S)-3,4,5-trihydroxy-2-(hydroxymethyl)piperidin-1-yl]ethyl}phenyl)ethyl]amino}benzonitrile], the IC50 in assay [1] (setting [6]) came to 0.005 µM; in assay [2], 0.542 µM; in assay [3], 0.237 µM; in assay [4], 4.5 µM; in assay [5] it was 0.097 µM.

On to `N#Cc1cc(Cl)cc(NCCc2ccc(CCN3C[C@H](O)[C@@H](O)[C@H](O)[C@H]3CO)cc2)c1` [Compound 1134, 3-chloro-5-{[2-(4-{2-[(2R,3R,4R,5S)-3,4,5-trihydroxy-2-(hydroxymethyl)piperidin-1-yl]ethyl}phenyl)ethyl]amino}benzonitrile], for which the IC50 in assay [1] (setting [6]) was determined as 0.001 µM; in assay [2], 0.167 µM; in assay [3], 0.259 µM; in assay [4] it was 2.36 µM; in assay [5] it was 0.13 µM.

In the case of `O=[N+]([O-])c1cc(C2CC2)ccc1NCCCCCCN1C[C@H](O)[C@@H](O)[C@H](O)[C@H]1CO` [Compound 1136, (2R,3R,4R,5S)-1-{6-[(4-cyclopropyl-2-nitrophenyl)amino]hexyl}-2-(hydroxymethyl)piperidine-3,4,5-triol], the half-maximal inhibitory concentration (IC50) in assay [1] (setting [6]) was 0.001 µM; in assay [2], 0.009 µM; in assay [3] it was less than 0.001 µM; in assay [4], 0.037 µM; in assay [5], less than 0.001 µM.

Turning to `O=[N+]([O-])c1cc(-c2ccccc2)ccc1NCCCCCCN1C[C@H](O)[C@@H](O)[C@H](O)[C@H]1CO` [Compound 1138, (2R,3R,4R,5S)-2-(hydroxymethyl)-1-[6-({3-nitro-[1,1′-biphenyl]-4-yl}amino)hexyl]piperidine-3,4,5-triol], the IC50 is 0.002 µM in assay [1]; less than 0.001 µM in assay [2]; less than 0.001 µM in assay [3]; 0.018 µM in assay [4]; less than 0.001 µM in assay [5].

On to `[N-]=[N+]=Nc1ccc(NCCc2cc(Br)cc(CCN3C[C@H](O)[C@@H](O)[C@H](O)[C@H]3CO)c2)c([N+](=O)[O-])c1` [Compound 1140, (2R,3R,4R,5S)-1-[2-(3-{2-[(4-azido-2-nitrophenyl)amino]ethyl}-5-bromophenyl)ethyl]-2-(hydroxymethyl)piperidine-3,4,5-triol], for which the IC50 worked out at 0.045 µM in assay [1] (setting [6]); 2.09 µM in assay [2]; 4.14 µM in assay [3]; 0.674 µM in assay [4]; 3.12 µM in assay [5].

`COc1cc(CC2CCOC2)cc(NCCCCCCN2C[C@H](O)[C@@H](O)[C@H](O)[C@H]2CO)c1` (stereo partly drawn) [Compound 1141, (2R,3R,4R,5S)-2-(hydroxymethyl)-1-[6-({3-methoxy-5-[(oxolan-3-yl)methyl]phenyl}amino)hexyl]piperidine-3,4,5-triol]: the IC50 is 0.139 µM in assay [1] (setting [6]); 0.188 µM in assay [2]; 0.696 µM in assay [3]; 8.06 µM in assay [4]; 0.043 µM in assay [5].

Turning to `[N-]=[N+]=Nc1ccc(NCCNc2cc(Cl)cc(CCN3C[C@H](O)[C@@H](O)[C@H](O)[C@H]3CO)c2)c([N+](=O)[O-])c1` [Compound 1143, (2R,3R,4R,5S)-1-{2-[3-({2-[(4-azido-2-nitrophenyl)amino]ethyl}amino)-5-chlorophenyl]ethyl}-2-(hydroxymethyl)piperidine-3,4,5-triol], the IC50 in assay [1] (setting [6]) was 0.002 µM; in assay [2] it was 0.796 µM; in assay [3], 2.01 µM; in assay [4], 0.404 µM; in assay [5] it was 2.06 µM.

Turning to `COc1cc(Cc2ccccc2)cc(NCCCCCCN2C[C@H](O)[C@@H](O)[C@H](O)[C@H]2CO)c1` [Compound 1145, (2R,3R,4R,5S)-1-{6-[(3-benzyl-5-methoxyphenyl)amino]hexyl}-2-(hydroxymethyl)piperidine-3,4,5-triol], the IC50 in assay [1] (setting [6]) is less than 0.001 µM; in assay [2], 0.06 µM; in assay [3], 0.003 µM; in assay [4] it was 0.458 µM; in assay [5] it was less than 0.001 µM.

For the molecule `COc1cc(NCCCCCCN2C[C@H](O)[C@@H](O)[C@H](O)[C@H]2CO)cc(C2CCCO2)c1` (stereo partly drawn) [Compound 1146, (2R,3R,4R,5S)-2-(hydroxymethyl)-1-(6-{[3-methoxy-5-(oxolan-2-yl)phenyl]amino}hexyl)piperidine-3,4,5-triol], the IC50 in assay [1] (setting [6]) was 0.015 µM; in assay [2], 0.068 µM; in assay [3] it was 0.092 µM; in assay [4], 2.17 µM; in assay [5], 0.023 µM.

In the case of `COc1cc(NCCCCCCN2C[C@H](O)[C@@H](O)[C@H](O)[C@H]2CO)cc(C2=CCCO2)c1` [Compound 1147, (2R,3R,4R,5S)-1-(6-{[3-(4,5-dihydrofuran-2-yl)-5-methoxyphenyl]amino}hexyl)-2-(hydroxymethyl)piperidine-3,4,5-triol], the concentration for half-maximal inhibition (IC50) was 0.034 µM in assay [1] (setting [6]); 0.038 µM in assay [2]; 0.04 µM in assay [3]; 1.98 µM in assay [4]; 0.008 µM in assay [5].

Consider `COc1cc(NCCCCCCN2C[C@H](O)[C@@H](O)[C@H](O)[C@H]2CO)cc(C2CCCCC2)c1` [Compound 1148, (2R,3R,4R,5S)-1-{6-[(3-cyclohexyl-5-methoxyphenyl)amino]hexyl}-2-(hydroxymethyl)piperidine-3,4,5-triol], for which the IC50 in assay [1] (setting [6]) is less than 0.001 µM; in assay [2] it was 0.088 µM; in assay [3], 0.001 µM; in assay [4], 0.002 µM; in assay [5], less than 0.001 µM.
